Measurements: the supplement of paper PMC8671470

Tests used:
Conditions in all cases: 72 h
MV4-11 [1] = tested on: MV4-11
Procedure, shortened: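 The IC50 was read from log-logistic dose–response fits. Fifteen myeloid leukaemia lines were exposed for 72 h at 37 °C with 5% CO2 to five tenfold doses from 1 to 10,000 nM in duplicate. ATP luminescence, normalised to vehicle and to a 10 µM positive control, was fitted with four parameters.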

KG-1 = experiment: cell viability (% survival relative to DMSO control, bortezomib = 0%); higher = less cytotoxic
Procedure, shortened: (§1)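 Fifteen myeloid leukaemia cell lines (10 AML, 5 CML) were seeded at a density titrated to the linear growth range. They went into 384-well plates with compounds pre-printed at 1, 10, 100, 1000 or 10000 nM in duplicate. After 72 h at 37 °C with 5% CO2, viability was read by CellTiter-Glo luminescence. Values are percent survival, with vehicle set to 100% and a 10 µM positive control to 0%, averaged over the duplicates.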

K-562 = experiment: as above
Procedure, shortened: as §1

LAMA-84 = experiment: as above
Procedure, shortened: as §1

MOLM-13 = experiment: as above
Procedure, shortened: as §1

KU-812 = experiment: as above
Procedure, shortened: as §1

KCL-22 = experiment: as above
Procedure, shortened: as §1

NOMO-1 = experiment: as above
Procedure, shortened: as §1

HEL = experiment: as above
Procedure, shortened: as §1

SHI-1 = experiment: as above
Procedure, shortened: as §1

Mono-Mac-6 = experiment: as above
Procedure, shortened: as §1

BV-173 = experiment: as above
Procedure, shortened: as §1

HL-60 [2] = experiment: as above
Procedure, shortened: as §1

ML-2 = experiment: as above
Procedure, shortened: as §1

MV4-11 [3] = experiment: as above
Procedure, shortened: as §1

THP-1 = experiment: as above
Procedure, shortened: as §1

HL-60 [4] = experiment: area under dose-response curve (viability, 1 nM-10 uM) (fraction (0-1)); higher = more sensitive
Procedure, shortened: (§2)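 HL-60 cells in RPMI 1640 with 10% FBS were rescreened against the full library on 384-well plates at five tenfold concentrations, 1–10,000 nM, in duplicate. Each screen was run with DMSO or 100 nM of one of three metabolic inhibitors, for 72 h at 37 °C, 5% CO2. Viability was read by CellTiter-Glo and normalised to DMSO and 10 μM proteasome-inhibitor wells. Where given, area under the curve came from four-parameter log-logistic fits (drc, PharmacoGx).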

HL-60 [5] = experiment: cell viability (% survival relative to DMSO control); higher = less cytotoxic
Procedure, shortened: as §2

c1ccc2nc(-c3nnc4sc(-c5cnccn5)nn34)ccc2c1
Conditions	IC50 (cell viability) [µM]
MV4-11 [1]	> 10

Conditions	area under dose-response curve, co-treatment: AZD3965 100 nM	area under dose-response curve, co-treatment: DMSO vehicle	area under dose-response curve, co-treatment: GSK2194069 100 nM	area under dose-response curve, co-treatment: pictilisib 100 nM	cell viability, 1 nM [%]	cell viability, 10 nM [%]	cell viability, 100 nM [%]	cell viability, 1000 nM [%]	cell viability, 10000 nM [%]
BV-173	–	–	–	–	103	105	103	100	96.1
HEL	–	–	–	–	95.3	96	93.7	95.1	99.4
HL-60 [2]	–	–	–	–	108	100	102	67.9	103
HL-60 [4]	< 0.0301	< 0.0301	< 0.0301	< 0.0301	–	–	–	–	–
K-562	–	–	–	–	110	105	107	108	105
KCL-22	–	–	–	–	97.3	109	109	105	95.7
KG-1	–	–	–	–	110	107	99.4	91.9	84.6
KU-812	–	–	–	–	105	115	94.9	91.8	95.7
LAMA-84	–	–	–	–	100	104	105	95.4	94.1
ML-2	–	–	–	–	108	122	111	86.5	110
MOLM-13	–	–	–	–	99.6	108	95.3	86.7	90.4
MV4-11 [3]	–	–	–	–	96.4	107	108	88	111
Mono-Mac-6	–	–	–	–	111	108	108	91.1	98.5
NOMO-1	–	–	–	–	106	109	99.5	93.7	101
SHI-1	–	–	–	–	108	107	116	91.9	98
THP-1	–	–	–	–	105	103	105	88.5	99.3

cell viability [%], HL-60 [5]
Conditions	0.001 µM	0.01 µM	0.1 µM	1 µM	10 µM
co-treatment: AZD3965 100 nM	98.9	98.75	100.9	98.9	98.4
co-treatment: DMSO vehicle	97.4	100	98.61	98	102
co-treatment: GSK2194069 100 nM	102	101	100	93.01	95.9
co-treatment: pictilisib 100 nM	105	103	103	107	100.1

CCCCCCCCCCCCCCOc1ccc(C(=O)O)o1 [TOFA]
Conditions	IC50 (cell viability) [µM]
MV4-11 [1]	> 10

Conditions	area under dose-response curve, co-treatment: AZD3965 100 nM	area under dose-response curve, co-treatment: DMSO vehicle	area under dose-response curve, co-treatment: GSK2194069 100 nM	area under dose-response curve, co-treatment: pictilisib 100 nM	cell viability, 1 nM [%]	cell viability, 10 nM [%]	cell viability, 100 nM [%]	cell viability, 1000 nM [%]	cell viability, 10000 nM [%]
BV-173	–	–	–	–	110	104	101	90.1	103
HEL	–	–	–	–	108	91.8	103	103	83.8
HL-60 [2]	–	–	–	–	75.1	83.8	108	109	85.4
HL-60 [4]	< 0.0301	< 0.0301	< 0.0301	0.114	–	–	–	–	–
K-562	–	–	–	–	100	93.4	92	108	114
KCL-22	–	–	–	–	94.2	90.6	108	107	40.4
KG-1	–	–	–	–	95.8	103	116	97.5	93.2
KU-812	–	–	–	–	109	95	95.6	81.5	82.5
LAMA-84	–	–	–	–	106	105	102	103	90.1
ML-2	–	–	–	–	101	92.8	110	101	108
MOLM-13	–	–	–	–	102	91.7	98.8	82.7	87
MV4-11 [3]	–	–	–	–	87.6	87.9	104	98.4	96.2
Mono-Mac-6	–	–	–	–	113	94.5	99.8	94.2	105
NOMO-1	–	–	–	–	105	101	99.3	99	109
SHI-1	–	–	–	–	113	85.6	110	98.9	89.9
THP-1	–	–	–	–	98.2	101	97.9	86.4	88.8

cell viability [%], HL-60 [5]
Conditions	0.001 µM	0.01 µM	0.1 µM	1 µM	10 µM
co-treatment: AZD3965 100 nM	96.4	101	104	97.5	100
co-treatment: DMSO vehicle	98.8	102	98.8	98.5	97.592
co-treatment: GSK2194069 100 nM	81.3	96.3	84.6	95.9	94.01
co-treatment: pictilisib 100 nM	80.5	100	94.5	107	2.06

C=C1NC(=O)c2cc(CN(C)c3ccc(C(=O)N[C@@H](CCC(=O)O)C(=O)O)s3)ccc2N1 [Raltitrexed]
Conditions	IC50 (cell viability) [µM]
MV4-11 [1]	0.0919

Conditions	area under dose-response curve, co-treatment: AZD3965 100 nM	area under dose-response curve, co-treatment: DMSO vehicle	area under dose-response curve, co-treatment: GSK2194069 100 nM	area under dose-response curve, co-treatment: pictilisib 100 nM	cell viability, 1 nM [%]	cell viability, 10 nM [%]	cell viability, 100 nM [%]	cell viability, 1000 nM [%]	cell viability, 10000 nM [%]
BV-173	–	–	–	–	95.6	163	8.17	1.32	3.9
HEL	–	–	–	–	100	109	6.54	6.59	7.77
HL-60 [2]	–	–	–	–	108	127	116	6.78	6.89
HL-60 [4]	0.598	0.412	0.42	0.432	–	–	–	–	–
K-562	–	–	–	–	104	121	86.5	49.2	52.4
KCL-22	–	–	–	–	103	107	45.4	21.2	22
KG-1	–	–	–	–	101	103	101	100	102
KU-812	–	–	–	–	94.1	104	37.7	34.6	39.1
LAMA-84	–	–	–	–	97.1	108	27.7	22.4	26.6
ML-2	–	–	–	–	93.9	121	61.6	5.21	6.92
MOLM-13	–	–	–	–	118	145	5.74	1.25	1.81
MV4-11 [3]	–	–	–	–	108	110	48.1	4.34	6.68
Mono-Mac-6	–	–	–	–	94.2	108	19.4	8.75	9.59
NOMO-1	–	–	–	–	99.5	113	51.3	34.8	31.4
SHI-1	–	–	–	–	106	118	99.8	38.4	43.3
THP-1	–	–	–	–	92.9	118	61.4	40.7	46.1

cell viability [%], HL-60 [5]
Conditions	0.001 µM	0.01 µM	0.1 µM	1 µM	10 µM
co-treatment: AZD3965 100 nM	99.38	74.1	76.3	25.7	24.2
co-treatment: DMSO vehicle	101	88.5	55.7	31.6	27.6
co-treatment: GSK2194069 100 nM	98.5	79.7	53.7	30.6	23.3
co-treatment: pictilisib 100 nM	101	78.4	51.8	34.2	26.11
